Molecular target: T1, Bifunctional epoxide hydrolase 2 (Homo sapiens) (UniProt P34913)
T1 sequence (whole entry): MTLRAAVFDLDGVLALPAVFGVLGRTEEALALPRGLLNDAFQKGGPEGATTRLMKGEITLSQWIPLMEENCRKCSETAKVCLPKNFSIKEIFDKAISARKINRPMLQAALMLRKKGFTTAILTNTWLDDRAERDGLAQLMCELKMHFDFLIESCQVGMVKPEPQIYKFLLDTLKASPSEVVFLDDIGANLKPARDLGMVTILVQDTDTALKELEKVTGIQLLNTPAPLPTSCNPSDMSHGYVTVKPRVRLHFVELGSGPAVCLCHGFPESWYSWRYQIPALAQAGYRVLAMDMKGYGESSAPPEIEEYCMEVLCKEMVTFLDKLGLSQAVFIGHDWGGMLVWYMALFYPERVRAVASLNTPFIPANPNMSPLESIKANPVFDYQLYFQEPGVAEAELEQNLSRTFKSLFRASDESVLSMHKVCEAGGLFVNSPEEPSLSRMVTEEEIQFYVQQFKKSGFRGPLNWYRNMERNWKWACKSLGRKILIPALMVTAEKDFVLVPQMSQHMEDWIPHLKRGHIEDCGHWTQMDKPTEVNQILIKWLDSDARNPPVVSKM
Test: Inhibition of recombinant human sEH at 100 nM using PHOME as substrate measured after 15 mins by fluorescence assay relative to control

O=C(Cc1ccc(Cl)cc1)Nc1nc2ccc(N(CCN3CCOCC3)C(=O)Nc3ccc(Cl)cc3)cc2s1
inhibition: 71.9%

CC(=O)Nc1nc2ccc(N(CCN3CCOCC3)C(=O)Nc3ccc(Cl)cc3)cc2s1
inhibition: 68.1%

COc1ccc(CC(=O)Nc2nc3ccc(N(CCN4CCOCC4)C(=O)Nc4ccc(Cl)cc4)cc3s2)cc1F
inhibition: 58.1%

Nc1nc2ccc(N(CCN3CCOCC3)C(=O)Nc3cccc(C(F)(F)F)c3)cc2s1
inhibition: 6.18%

O=C(Cc1ccccc1)Nc1nc2ccc(N(CCN3CCOCC3)C(=O)Nc3ccc(F)c(Br)c3)cc2s1
inhibition: 74.2%

Nc1nc2ccc(N(CCN3CCOCC3)C(=O)Nc3ccc(F)cc3)cc2s1
inhibition: 74.3%

Nc1nc2ccc(NC(=O)Nc3ccccn3)cc2s1
inhibition: 20.5%

O=C(Nc1ccc(Cl)cc1)Nc1nc2ccc(NCCN3CCOCC3)cc2s1
inhibition: 16.2%

Nc1nc2ccc(N(CCN3CCOCC3)C(=O)Nc3ccc(OC(F)(F)F)cc3)cc2s1
inhibition: 61.3%

Nc1nc2ccc(N(CCCN3CCOCC3)C(=O)Nc3ccc(Cl)cc3)cc2s1
inhibition: 9.44%

Cc1ccccc1NC(=O)N(CCN1CCOCC1)c1ccc2nc(N)sc2c1
inhibition: 26.3%

O=C(NCc1ccc(Cl)cc1)Nc1nc2ccc([N+](=O)[O-])cc2s1
inhibition: 10.9%

NC(=O)Nc1ccc2nc(N)sc2c1
inhibition: 25.3%

CN(C)CCN(C(=O)Nc1ccc(Cl)cc1)c1ccc2nc(N)sc2c1
inhibition: 39.1%

Nc1nc2ccc(NC(=O)NCc3ccc(Cl)cc3)cc2s1
inhibition: 47%

O=C(Nc1nc2ccc(N(CCN3CCOCC3)C(=O)Nc3ccc(Cl)cc3)cc2s1)C1CC1
inhibition: 32.5%

Nc1nc2ccc(NC(=O)Nc3ccc(OC(F)(F)F)cc3)cc2s1
inhibition: 60.2%

COc1ccc(NC(=O)Nc2ccc3nc(N)sc3c2)cc1
inhibition: 39.3%

O=C(Nc1nc2ccc(N(CCN3CCOCC3)C(=O)Nc3ccc(Cl)cc3)cc2s1)c1ccc(F)cc1
inhibition: 64%

Nc1nc2ccc(N(CCN3CCCC3)C(=O)Nc3ccc(Cl)cc3)cc2s1
inhibition: 48.3%

O=C(Nc1nc2ccc(N(CCN3CCOCC3)C(=O)Nc3ccc(Cl)cc3)cc2s1)c1ccccc1
inhibition: 48.8%

CN1CCN(CCN(C(=O)Nc2ccc(Cl)cc2)c2ccc3nc(N)sc3c2)CC1
inhibition: 45.9%

Nc1ccc2nc(NC(=O)Nc3ccc(Cl)cc3)sc2c1
inhibition: 6.7%

CC(=O)Nc1ccc2nc(NC(=O)Nc3ccc(Cl)cc3)sc2c1
inhibition: 12.5%

O=C(Cc1ccc(F)cc1)Nc1nc2ccc(N(CCN3CCOCC3)C(=O)Nc3ccc(Cl)cc3)cc2s1
inhibition: 74.9%

Nc1nc2ccc(N(CCN3CCOCC3)C(=O)NCc3ccc(Cl)cc3)cc2s1
inhibition: 14.5%

O=C(Cc1ccccc1F)Nc1nc2ccc(N(CCN3CCOCC3)C(=O)Nc3ccc(F)c(Br)c3)cc2s1
inhibition: 73.8%

CC(=O)Nc1ccc(NC(=O)N(CCN2CCOCC2)c2ccc3nc(N)sc3c2)cc1
inhibition: 59.4%

CCc1ccc(NC(=O)N(CCN2CCOCC2)c2ccc3nc(NC(=O)Cc4ccccc4)sc3c2)cc1
inhibition: 76.8%

Nc1nc2ccc(N(CCN3CCOCC3)C(=O)Nc3ccccc3)cc2s1
inhibition: 40.4%

Nc1nc2ccc(N(CCN3CCOCC3)C(=O)Nc3ccc(C(F)(F)F)cc3)cc2s1
inhibition: 62%

Nc1ccc2nc(NC(=O)NCc3ccc(Cl)cc3)sc2c1
inhibition: 14.2%

Nc1nc2ccc(N(CCN3CCOCC3)C(=O)Nc3ccccn3)cc2s1
inhibition: 16.2%

CC(=O)Nc1ccc2nc(NC(=O)NCc3ccc(Cl)cc3)sc2c1
inhibition: 14.5%

Nc1nc2ccc(N(CCN3CCOCC3)C(=O)Nc3ccc([N+](=O)[O-])cc3)cc2s1
inhibition: 19.2%

Nc1nc2ccc(NC(=O)Nc3ccccc3)cc2s1
inhibition: 40.1%

O=C(CCc1ccccc1)Nc1nc2ccc(N(CCN3CCOCC3)C(=O)Nc3ccc(Cl)cc3)cc2s1
inhibition: 77.7%

O=C(Cc1ccc(Cl)cc1Cl)Nc1nc2ccc(N(CCN3CCOCC3)C(=O)Nc3ccc(Cl)cc3)cc2s1
inhibition: 71.8%

Nc1nc2ccc(N(CCN3CCOCC3)C(=O)Nc3cccc(Cl)c3)cc2s1
inhibition: 36.5%

O=C(Cc1ccc(Br)cc1)Nc1nc2ccc(N(CCN3CCOCC3)C(=O)Nc3ccc(Cl)cc3)cc2s1
inhibition: 70.6%

— ChEMBL document CHEMBL4706628, “Ligand-based optimization to identify novel 2-aminobenzo[d]thiazole derivatives as potent sEH inhibitors with anti-inflammatory effects” (Eur J Med Chem, 2021)
